From patent US8986946B2, “Real-time method for the detection of viable micro-organisms” (Nederlandse Organisatie Voor …, priority 2007, dated 2015)

Assays:
[1] = test system: Staphylococcus aureus ATCC 6538; test: Real-time viability assay, uptake of the phototautomeric compound followed by fluorescence; format: cell-based; conditions: for uptake by bacteria: 50 μM compound in 100 mM potassium phosphate buffer pH 2 (FIG. 6); for rise in fluorescence after addition of the compound, viable vs nonviable cells: 50 μM compound, 100 mM potassium phosphate buffer pH 2, added at t=20 seconds
Protocol: (§1) A solution of 100 μl containing 50 μM compound in 100 mM potassium phosphate buffer pH 7 is used for recording the excitation and emission wavelengths in a Tecan microplate fluorometer. The ratio of emission intensity at pH 7.5 and 1 as well as the ratio of emission intensity at pH 7 and 2 (indicated by the asterisk) was recorded with 100 μl solution containing 50 μM compound in 100 mM potassium phosphate buffer pH 2 or 7 in a Tecan microplate fluorometer at optimal excitation wavelength. Uptake of compounds by viable and nonviable (heat-inactivated for 5 minutes at 95° C.) Staphylococcus aureus ATCC 6538 and Sachromyces serervisiae ATCC 9763 cells is real-time monitored in a Tecan microplate fluorometer at optimal excitation and emission wavelengths. A solution of 50 μM compound in 100 mM potassium phosphate buffer pH2 was added to 100 μl cell suspensions at t=20 seconds, uptake of compound was monitored for 180 seconds.
(§2) A solution of 100 μl containing 50 μM o-hydroxycinnamic acid, 100 mM potassium phosphate buffer pH 2, was added at t=20 seconds, as indicated by the arrow.
(§3) Typical real-time viability assay. Staphylococcus aureus strain ATCC 6538 is cultured overnight at 100 RPM at 37° C. in 10-ml of a rich trypticase soy broth (TSB) medium. A culture volume of 5 ml is centrifuged at 2000 RPM for 10 min and resuspended in 2 ml of physiological salt solution (peptone, 0.9% NaCl) followed by an OD600 measurement. A culture suspension of 1 ml is heat-inactivated by incubation at 95° C. for 5 min. (nonviable control cell suspension). A volume of 100 μl of a viable and a nonviable cell suspension is pipetted in separate wells of a polystyrene 96-well, flat-bottom microtiter plate. Subsequently, fluorescence emission kinetics (excitation wavelength 290 nm; emission wavelength 402 nm) are monitored for 500 seconds with a time interval of 200 ms, number of reads 5. […] Hereafter, the fluorescence signal decays on a minute time-scale as a result of the loss of membrane integrity or cell viability. […] From 60.2 seconds the signal will remain constant as the membrane is permeable in nonviable cells allowing quenching of fluorescence by acidification of the intracellular environment.

[2] = test system: Saccharomyces cerevisiae ATCC 9763; test: as above; format: cell-based; conditions: for uptake by yeast: 50 μM compound in 100 mM potassium phosphate buffer pH 2 (FIG. 6)
Protocol: as §1, §2
Real-time viability assay for various micro-organisms. Bacterial and yeast strains were cultured overnight at 37° C. at 100 RPM in 10-ml of a rich trypticase soy broth (TSB) medium. A culture volume of 5 ml is centrifuged at 2000 RPM for 10 min and resuspended in 2 ml of physiological salt solution (peptone, 0.9% NaCl) followed by an OD600 measurement. The yeast strains include Candida albicans ATCC 10231, Saccharomyces cereuisiae ATCC9763 and the bacterial strains include A Staphylococcus aureus strain ATCC 6538, Enterobacter cloacae LMG 2783, Escherichia coli ATCC 10536, Bacillus subtilis DSM618 and Pseudomonas aeruginosa ATCC27853. The assay is carried out as specified above for Staphylococcus aureus. […] Accordingly, quantification of the number of viable cells of the yeast and other fungal strains should occur on the basis of increase of fluorescence over the measured period of time.

[3] = test system: yeast (and other fungal) strains: Candida albicans ATCC 10231, Saccharomyces cereuisiae ATCC9763; test: Real-time viability assay for various micro-organisms (yeast strains); format: cell-based, Saccharomyces cerevisiae; conditions: 100 mM potassium phosphate buffer pH 2
Protocol: as §3, with “environment. Real-time viability assay for various micro-organisms. Bacterial and yeast strains were cultured overnight at 37° C. at 100 RPM in 10-ml of a rich trypticase soy broth (TSB) medium. A culture volume of 5 ml is centrifuged at 2000 RPM for 10 min and resuspended in 2 ml of physiological salt solution (peptone, 0.9% NaCl) followed by an OD600 measurement. The yeast strains include Candida albicans ATCC 10231, Saccharomyces cereuisiae ATCC9763 and the bacterial strains include A Staphylococcus aureus strain ATCC 6538, Enterobacter cloacae LMG 2783, Escherichia coli ATCC 10536, Bacillus subtilis DSM618 and Pseudomonas aeruginosa ATCC27853. The assay is carried out as specified above for Staphylococcus aureus. […] Accordingly, quantification of the number of viable cells of the yeast and other fungal strains should occur on the basis of increase of fluorescence over the measured period of time.” for “environment.”

[4] = test system: Saccharomyces cerevisiae ATCC 9763; test: Real-time viability assay, uptake of the phototautomeric compound followed by fluorescence; format: cell-based; conditions: 2 mM salicylic acid, pH 2

SMILES: O=C(O)c1ccc2ccccc2c1O [1H-2NA, 1-hydroxy-2-naphtoic acid]
- uptake by bacteria [1]: taken up by both bacteria and yeast
- uptake by yeast [2]: taken up by both bacteria and yeast
- accumulation of the compound by yeast (and other fungal) strains [3]: relatively slowly
- decay of fluorescent signal in yeast (and other fungal) strains [3]: no decay of fluorescent signal

SMILES: O=C(O)c1c(O)ccc2ccccc12 [2H-1NA, 2-hydroxy-1-naphtoic acid]
- accumulation of the compound by yeast (and other fungal) strains [3]: relatively slowly
- decay of fluorescent signal in yeast (and other fungal) strains [3]: no decay of fluorescent signal

SMILES: Nc1cc2ccccc2cc1C(=O)O [3-amino-2-napthoic acid]
- uptake by bacteria [1]: taken up by both bacteria and yeast
- uptake by yeast [2]: taken up by both bacteria and yeast

SMILES: Nc1ccc(C(=O)O)c(O)c1 [4-amino salicylic acid]
- uptake by yeast [2]: hardly taken up by yeast

SMILES: O=C(O)c1ccc(O)cc1O [4-hydroxy salicylic acid]
- uptake by yeast [2]: hardly taken up by yeast

SMILES: Nc1ccc(O)c(C(=O)O)c1 [5-amino salicylic acid]
- uptake by yeast [2]: hardly taken up by yeast

SMILES: Cn1c(=O)n(C)c2cc(C(=O)O)c(N)cc21 [6-amino-1,3-dimethyl-2-oxo-2,3-dihydro-1H-benzoimidazole-5-carboxylic acid]
- rise in fluorescence after addition of the compound, viable vs nonviable cells ([2]; 50 μM compound, 100 mM potassium phosphate buffer pH 2, added at t=20 seconds): only observed for viable Saccharomyces cereuisiae cells

SMILES: O=C(O)c1cc2oc3ccccc3c2cc1O [S350729]
- uptake by bacteria [1]: taken up by both bacteria and yeast
- uptake by yeast [2]: taken up by both bacteria and yeast

SMILES: O=C(O)c1cc(O)ccc1O [gentisic acid, 2,5-dihydroxybenzoic acid]
- rise in fluorescence after addition of the compound, viable vs nonviable cells [1]: only observed for viable Staphylococcus aureus cells

SMILES: O=C(O)C=Cc1ccccc1O [o-hydroxycinnamic acid]
- rise in fluorescence after addition of the compound, viable vs nonviable cells [1]: only observed for viable Staphylococcus aureus cells
- uptake by yeast [2]: hardly taken up by yeast

SMILES: O=C(O)c1ccccc1O [salicylic acid]
- uptake by bacteria [1]: taken up by both bacteria and yeast
- time constant of the acidification process ([1]; 2 mM salicylic acid, 100 mM potassium phosphate buffer pH 2): 0.005 s⁻¹
- time scale of the rapid rise in fluorescence (transfer from the extracellular to the intracellular medium) ([1]; 100 μl of 2 mM salicylic acid, 100 mM potassium phosphate buffer pH 2, injected at 60 seconds): < 200 ms
- uptake of salicylic acid by the bacteria (time) ([1]; stationary culture, 2 mM salicylic acid, 100 mM potassium phosphate buffer pH 2): within seconds
- uptake by yeast [2]: taken up by both bacteria and yeast
- accumulation of the compound by yeast (and other fungal) strains [3]: relatively slowly
- decay of fluorescent signal in yeast (and other fungal) strains [3]: no decay of fluorescent signal
- permeability of the cell membrane to the compound, compared with bacteria [4]: less-permeable
